Experimental data taken from ChEMBL document CHEMBL1649565, “Besifloxacin, a novel fluoroquinolone, has broad-spectrum in vitro activity against aerobic and anaerobic bacteria” (Antimicrob Agents Chemother, 2009).
The source made the active and inactive calls.

Tests used:
[1] = Antibacterial activity against Lancefield Streptococcus sp. 'group C' by CLSI M100-S18 method; format: functional
[2] = system: Staphylococcus lugdunensis; assay: Antibacterial activity against Staphylococcus lugdunensis assessed as percent susceptible isolates by CLSI M100-S18 method; format: functional
Streptococcus pyogenes [3] = assay: Antibacterial activity against Streptococcus pyogenes assessed as percent susceptible isolates by CLSI M100-S18 method; format: functional
Streptococcus agalactiae [4] = assay: Antibacterial activity against Streptococcus agalactiae assessed as percent susceptible isolates by CLSI M100-S18 method; format: functional
[5] = system: Staphylococcus saprophyticus; assay: Antibacterial activity against Staphylococcus saprophyticus by CLSI M100-S18 method; format: functional
Morganella morganii [6] = assay: Antibacterial activity against Morganella morganii by CLSI M7-A7 method; format: functional
Klebsiella oxytoca [7] = assay: Antibacterial activity against Klebsiella oxytoca by CLSI M7-A7 method; format: functional
Staphylococcus aureus [8] = assay: Antibacterial activity against non-ciprofloxacin-susceptible and methicillin-susceptible Staphylococcus aureus assessed as percent susceptible isolates by CLSI M100-S18 method; format: functional
Peptostreptococcus sp. [9] = assay: Antibacterial activity against Peptostreptococcus sp. by CLSI M11-A7 method; format: functional
[10] = Antibacterial activity against Lancefield Streptococcus sp. 'group G' assessed as percent susceptible isolates by CLSI M100-S18 method; format: functional
Cutibacterium acnes [11] = assay: Antibacterial activity against Propionibacterium acnes assessed as percent susceptible isolates by CLSI M11-A7 method; format: functional
[12] = system: Staphylococcus epidermidis; assay: Antibacterial activity against non-ciprofloxacin-susceptible and methicillin-susceptible Staphylococcus epidermidis assessed as percent susceptible isolates by CLSI M100-S18 method; format: functional
Clostridium perfringens [13] = system: Clostridium perfringens
Clostridium perfringens [14] = assay: Antibacterial activity against Clostridium perfringens by CLSI M11-A7 method; format: functional
[15] = system: Staphylococcus saprophyticus; assay: Antibacterial activity against Staphylococcus saprophyticus assessed as percent susceptible isolates by CLSI M100-S18 method; format: functional
[16] = Antibacterial activity against Lancefield Streptococcus sp. 'group C' assessed as percent susceptible isolates by CLSI M100-S18 method; format: functional
Staphylococcus aureus [17] = assay: Antibacterial activity against non-ciprofloxacin-susceptible and methicillin-susceptible Staphylococcus aureus by CLSI M100-S18 method; format: functional
Bacteroides fragilis [18] = assay: Antibacterial activity against Bacteroides fragilis assessed as percent susceptible isolates by CLSI M11-A7 method; format: functional
Peptostreptococcus sp. [19] = assay: Antibacterial activity against Peptostreptococcus sp. assessed as percent susceptible isolates by CLSI M11-A7 method; format: functional
Klebsiella oxytoca [20] = assay: Antibacterial activity against Klebsiella oxytoca assessed as percent susceptible isolates by CLSI M7-A7 method; format: functional
Streptococcus mitis = assay: Antibacterial activity against Streptococcus mitis by CLSI M100-S18 method; format: functional
Cutibacterium acnes [21] = assay: Antibacterial activity against Propionibacterium acnes by CLSI M11-A7 method; format: functional
Streptococcus pyogenes [22] = assay: Antibacterial activity against Streptococcus pyogenes by CLSI M100-S18 method; format: functional
Fusobacterium sp. [23] = assay: Antibacterial activity against Fusobacterium sp. by CLSI M11-A7 method; format: functional
[24] = system: Staphylococcus epidermidis; assay: Antibacterial activity against ciprofloxacin-susceptible and methicillin-resistant Staphylococcus epidermidis assessed as percent susceptible isolates by CLSI M100-S18 method; format: functional
Staphylococcus warneri [25] = assay: Antibacterial activity against Staphylococcus warneri by CLSI M100-S18 method; format: functional
[26] = system: Streptococcus intermedius; assay: Antibacterial activity against Streptococcus intermedius by CLSI M100-S18 method; format: functional
Streptococcus sanguinis = assay: Antibacterial activity against Streptococcus sanguinis by CLSI M100-S18 method; format: functional
Staphylococcus warneri [27] = assay: Antibacterial activity against Staphylococcus warneri assessed as percent susceptible isolates by CLSI M100-S18 method; format: functional
Prevotella sp. [28] = assay: Antibacterial activity against Prevotella sp. assessed as percent susceptible isolates by CLSI M11-A7 method; format: functional
Streptococcus salivarius = assay: Antibacterial activity against Streptococcus salivarius by CLSI M100-S18 method; format: functional
Bacteroides fragilis [29] = assay: Antibacterial activity against Bacteroides fragilis by CLSI M11-A7 method; format: functional
Streptococcus anginosus = assay: Antibacterial activity against Streptococcus anginosus by CLSI M100-S18 method; format: functional
Streptococcus equinus = assay: Antibacterial activity against Streptococcus bovis by CLSI M100-S18 method; format: functional
Citrobacter koseri [30] = assay: Antibacterial activity against Citrobacter koseri assessed as percent susceptible isolates by CLSI M7-A7 method; format: functional
Staphylococcus aureus [31] = assay: Antibacterial activity against ciprofloxacin-susceptible and methicillin-resistant Staphylococcus aureus assessed as percent susceptible isolates by CLSI M100-S18 method; format: functional
[32] = system: Staphylococcus epidermidis; assay: Antibacterial activity against ciprofloxacin-susceptible and methicillin-resistant Staphylococcus epidermidis by CLSI M100-S18 method; format: functional
[33] = system: Streptococcus constellatus; assay: Antibacterial activity against Streptococcus constellatus by CLSI M100-S18 method; format: functional
Streptococcus agalactiae [34] = assay: Antibacterial activity against Streptococcus agalactiae by CLSI M100-S18 method; format: functional
Staphylococcus hominis [35] = assay: Antibacterial activity against Staphylococcus hominis by CLSI M100-S18 method; format: functional
[36] = Antibacterial activity against Lancefield Streptococcus sp. 'group G' by CLSI M100-S18 method; format: functional
Fusobacterium sp. [37] = assay: Antibacterial activity against Fusobacterium sp. assessed as percent susceptible isolates by CLSI M11-A7 method; format: functional
Legionella pneumophila = assay: Antibacterial activity against Legionella pneumophila by CLSI M7-A7 method; format: functional
Staphylococcus hominis [38] = assay: Antibacterial activity against Staphylococcus hominis assessed as percent susceptible isolates by CLSI M100-S18 method; format: functional
[39] = system: Staphylococcus epidermidis
Staphylococcus aureus [40] = assay: Antibacterial activity against ciprofloxacin-susceptible and methicillin-resistant Staphylococcus aureus by CLSI M100-S18 method; format: functional
Moraxella catarrhalis = assay: Antibacterial activity against Moraxella catarrhalis by CLSI M7-A7 method; format: functional
Morganella morganii [41] = assay: Antibacterial activity against Morganella morganii assessed as percent susceptible isolates by CLSI M7-A7 method; format: functional
[42] = system: Staphylococcus epidermidis; remark: listed apart in the source
[43] = system: Staphylococcus haemolyticus; assay: Antibacterial activity against Staphylococcus haemolyticus assessed as percent susceptible isolates by CLSI M100-S18 method; format: functional
Streptococcus oralis = assay: Antibacterial activity against Streptococcus oralis by CLSI M100-S18 method; format: functional
[44] = system: Staphylococcus lugdunensis; assay: Antibacterial activity against Staphylococcus lugdunensis by CLSI M100-S18 method; format: functional
Streptococcus sp. [45] = assay: Antibacterial activity against Lancefield Streptococcus sp. group F by CLSI M100-S18 method; format: functional
Prevotella sp. [46] = assay: Antibacterial activity against Prevotella sp. by CLSI M11-A7 method; format: functional
Streptococcus sp. [47] = assay: Antibacterial activity against Lancefield Streptococcus sp. group F assessed as percent susceptible isolates by CLSI M100-S18 method; format: functional
[48] = system: Staphylococcus epidermidis; assay: Antibacterial activity against non-ciprofloxacin-susceptible and methicillin-susceptible Staphylococcus epidermidis by CLSI M100-S18 method; format: functional
[49] = system: Staphylococcus haemolyticus; assay: Antibacterial activity against Staphylococcus haemolyticus by CLSI M100-S18 method; format: functional
Citrobacter koseri [50] = assay: Antibacterial activity against Citrobacter koseri by CLSI M7-A7 method; format: functional

COc1c(N2CCNC(C)C2)c(F)cc2c(=O)c(C(=O)O)cn(C3CC3)c12 (stereo not given) [GATIFLOXACIN]
0.12 µg/mL: MIC50 [5] | MIC50 (Morganella morganii [6]) | MIC50 (Streptococcus pyogenes [22]) | MIC50 (Staphylococcus warneri [25]) | MIC50 [44] | MIC90 (Citrobacter koseri [50])
16 µg/mL: MIC90 (Prevotella sp. [46])
8 µg/mL: MIC50 (Prevotella sp. [46]) | MIC90 [49]
> 8 µg/mL: MIC90 (Morganella morganii [6]) | MIC90 (Staphylococcus aureus [17])
0.06 µg/mL: MIC90 [1] | MIC50 (Streptococcus mitis) | MIC50 [26] | MIC50 (Streptococcus sanguinis) | MIC50 (Streptococcus salivarius) | MIC50 (Streptococcus equinus) | MIC [32] | MIC50 [32] | MIC50 [33] | MIC90 (Streptococcus agalactiae [34]) | MIC90 [36] | MIC50 (Staphylococcus aureus [40]) | MIC50 (Streptococcus oralis) | MIC90 (Streptococcus sp. [45])
1 µg/mL: MIC50 (Clostridium perfringens [14]) | MIC90 (Clostridium perfringens [14]) | MIC90 (Streptococcus mitis) | MIC50 (Fusobacterium sp. [23]) | MIC90 [26] | MIC90 (Streptococcus sanguinis) | MIC90 (Streptococcus salivarius) | MIC90 (Streptococcus equinus) | MIC90 [33] | MIC50 (Staphylococcus hominis [35]) | MIC50 (Legionella pneumophila) | MIC90 (Streptococcus oralis) | MIC [48] | MIC50 [48]
≤ 0.015 µg/mL: MIC [1] | MIC50 [1] | MIC [36] | MIC50 [36] | MIC (Streptococcus sp. [45]) | MIC50 (Streptococcus sp. [45])
0.5 µg/mL: MIC90 (Klebsiella oxytoca [7]) | MIC90 (Cutibacterium acnes [21]) | MIC90 (Streptococcus anginosus)
100%: Activity (Streptococcus agalactiae [4]) | Activity [10] | Activity [16] | Activity (Streptococcus sp. [47])
inactive: Activity (Cutibacterium acnes [11]) | Activity (Clostridium perfringens [13]) | Activity (Bacteroides fragilis [18]) | Activity (Peptostreptococcus sp. [19]) | Activity (Prevotella sp. [28]) | Activity (Fusobacterium sp. [37]) | MIC90 [39] | MIC90 [42]
86%: Activity (Staphylococcus warneri [27])
0.015 µg/mL: MIC50 (Citrobacter koseri [50])
0.03 µg/mL: MIC50 (Klebsiella oxytoca [7]) | MIC50 (Streptococcus agalactiae [34])
0.25 µg/mL: MIC90 [5] | MIC (Cutibacterium acnes [21]) | MIC50 (Cutibacterium acnes [21]) | MIC90 (Streptococcus pyogenes [22]) | MIC50 (Streptococcus anginosus) | MIC90 (Staphylococcus aureus [40]) | MIC50 (Moraxella catarrhalis) | MIC90 (Moraxella catarrhalis)
2 µg/mL: MIC50 (Peptostreptococcus sp. [9]) | MIC50 (Bacteroides fragilis [29]) | MIC90 (Legionella pneumophila) | MIC90 [44] | MIC50 [49]
64.4%: Activity [43]
<=0.015%: Activity (Streptococcus pyogenes [3])
83.3%: Activity [12]
90.2%: Activity (Morganella morganii [41])
32%: Activity (Staphylococcus hominis [38])
99%: Activity [15] | Activity (Citrobacter koseri [30])
88.9%: Activity [24]
94.7%: Activity (Staphylococcus aureus [31])
4 µg/mL: MIC90 (Peptostreptococcus sp. [9]) | MIC50 (Staphylococcus aureus [17]) | MIC90 (Fusobacterium sp. [23]) | MIC90 (Staphylococcus warneri [25]) | MIC90 (Bacteroides fragilis [29]) | MIC90 (Staphylococcus hominis [35])
60%: Activity [2]
54.5%: Activity (Staphylococcus aureus [8])
96%: Activity (Klebsiella oxytoca [20])
